Columns and labels:
Prothrombin = Prothrombin (Homo sapiens, UniProt P00734); experiment: Inhibition of human thrombin using Ac-FVR-AMC as substrate incubated for 10 mins prior to substrate addition measured for 10 min by fluorescence assay
Rattus norvegicus [1] = experiment: Inhibition of arterial/venous thromboembolic weight in Sprague-Dawley rat at 3 mg/ml administered for 4 days relative to control; assay type: functional
Rattus norvegicus [2] = experiment: Inhibition of thrombin-induced platelet aggregation in Sprague-Dawley rat at 3 mg/ml administered for 4 days relative to control; assay type: functional
Rattus norvegicus [3] = experiment: Anticoagulant activity in Sprague-Dawley rat plasma assessed as activated partial […] time at 3 mg/ml administered for 4 days; assay type: functional
Rattus norvegicus [4] = experiment: Anticoagulant activity in Sprague-Dawley rat plasma assessed as prothrombin time at 3 mg/ml administered for 4 days; assay type: functional
Plasma = experiment: Anticoagulant activity in Sprague-Dawley rat plasma assessed as thrombin time at 3 mg/ml administered for 4 days; assay type: functional
Rattus norvegicus [5] = experiment: Anticoagulant activity in Sprague-Dawley rat plasma assessed as fibrinogen level at 3 mg/ml administered for 4 days; assay type: functional

| SMILES | IC50 (Prothrombin) | also measured |
| --- | --- | --- |
| Cn1c(CNc2ccc(C(=N)N)cc2F)nc2cc(C(=O)N(CCC(=O)O)c3ccccc3F)ccc21 | 4.93 nM |  |
| CCn1c(CNc2ccc(C(=N)N)cc2F)nc2cc(C(=O)N(CCC(=O)O)c3ccc(C)cn3)ccc21 | 19.2 nM |  |
| CCCCCCOC(=O)/N=C(/N)c1ccc(NCc2nc3cc(C(=O)N(CCC(=O)OCC)c4ccccc4F)ccc3n2C)cc1 |  | inhibition (INH) (Rattus norvegicus [1]): 37%; inhibition (INH) (Rattus norvegicus [2]): 10.4%; APTT (Rattus norvegicus [3]): 24.33 s; PT (Rattus norvegicus [4]): 11.82 s; TT (Plasma): 180 s; Activity (Rattus norvegicus [5]): 1.853 g/L |
| CCn1c(CNc2ccc(C(=N)N)cc2F)nc2cc(C(=O)N(CCC(=O)O)c3ccccc3OC)ccc21 | 21.6 nM |  |
| CCn1c(CNc2ccc(C(=N)N)cc2F)nc2cc(C(=O)N(CCC(=O)O)c3ccc(OC)cc3)ccc21 | 23.3 nM |  |
| CCCCCCOC(=O)NC(=N)c1ccc(NCc2nc3cc(C(=O)N(CCC(=O)OCC)c4ccccn4)ccc3n2C)cc1 [DABIGATRAN ETEXILATE] |  | inhibition (INH) (Rattus norvegicus [1]): 76%; inhibition (INH) (Rattus norvegicus [2]): 92.9%; APTT (Rattus norvegicus [3]): 76.57 s; PT (Rattus norvegicus [4]): 57.2 s; TT (Plasma): 180 s; Activity (Rattus norvegicus [5]): 1.561 g/L |
| Cn1c(CNc2ccc(C(=N)N)cc2F)nc2cc(C(=O)N(CCC(=O)O)c3ccccn3)ccc21 | 3.49 nM |  |
| Cn1c(CNc2ccc(C(=N)N)cc2F)nc2cc(C(=O)N(CCC(=O)O)c3ccc(F)cc3)ccc21 | 5.43 nM |  |
| Cn1c(CNc2ccc(C(=N)N)cc2F)nc2cc(C(=O)N(CCC(=O)O)c3ccccc3)ccc21 | 5.86 nM |  |
| CCn1c(CNc2ccc(C(=N)N)cc2F)nc2cc(C(=O)N(CCC(=O)O)c3cccc(OC)c3)ccc21 | 8.4 nM |  |
| CCn1c(CNc2ccc(C(=N)N)cc2F)nc2cc(C(=O)N(CCC(=O)O)c3ccccc3F)ccc21 | 3.71 nM |  |
| CCn1c(CNc2ccc(C(=N)N)cc2F)nc2cc(C(=O)N(CCC(=O)O)c3ccc(F)cc3)ccc21 | 4.9 nM |  |
| Cc1ccc(N(CCC(=O)O)C(=O)c2ccc3c(c2)nc(CNc2ccc(C(=N)N)cc2F)n3C)nc1 | 24 nM |  |
| CCn1c(CNc2ccc(C(=N)N)cc2F)nc2cc(C(=O)N(CCC(=O)O)c3ccccc3)ccc21 | 5.63 nM |  |
| Cn1c(CNc2ccc(C(=N)N)cc2)nc2cc(C(=O)N(CCC(=O)O)c3ccccc3F)ccc21 | 3.23 nM |  |
| CCn1c(CNc2ccc(C(=N)N)cc2F)nc2cc(C(=O)N(CCC(=O)O)c3ccccn3)ccc21 | 3.39 nM |  |
| CCn1c(CNc2ccc(C(=N)N)cc2F)nc2cc(C(=O)N(CCC(=O)O)c3ccccc3C)ccc21 | 7.26 nM |  |
| CCn1c(CNc2ccc(C(=N)N)cc2F)nc2cc(C(=O)N(CCC(=O)O)c3ccc(Cl)cc3)ccc21 | 13.6 nM |  |
| Cc1ccccc1N(CCC(=O)O)C(=O)c1ccc2c(c1)nc(CNc1ccc(C(=N)N)cc1F)n2C | 6.13 nM |  |
| COc1ccc(N(CCC(=O)O)C(=O)c2ccc3c(c2)nc(CNc2ccc(C(=N)N)cc2F)n3C)cc1 | 16.3 nM |  |
| CCCCCCOC(=O)/N=C(/N)c1ccc(NCc2nc3cc(C(=O)N(CCC(=O)OCC)c4ccccn4)ccc3n2C)c(F)c1 |  | inhibition (INH) (Rattus norvegicus [1]): 73%; inhibition (INH) (Rattus norvegicus [2]): 53.8%; APTT (Rattus norvegicus [3]): 25.43 s; PT (Rattus norvegicus [4]): 12.28 s; TT (Plasma): 137.3 s; Activity (Rattus norvegicus [5]): 1.939 g/L |
| Cn1c(CNc2ccc(C(=N)N)cc2F)nc2cc(C(=O)N(CCC(=O)O)c3cccc(F)c3)ccc21 | 4.54 nM |  |
| COc1cccc(N(CCC(=O)O)C(=O)c2ccc3c(c2)nc(CNc2ccc(C(=N)N)cc2F)n3C)c1 | 4.84 nM |  |
| CCn1c(CNc2ccc(C(=N)N)cc2F)nc2cc(C(=O)N(CCC(=O)O)c3cccc(F)c3)ccc21 | 4.92 nM |  |

Source: ChEMBL document CHEMBL3414490 (Eur J Med Chem, 2015)
